This series in a line: Solubility of the carboxylic acid in pure water. Conditions: maximum dissolution based on 100 g of pure water at 20° C.

Regarding `O=C(O)c1nc(C(=O)O)c(C(=O)O)c(C(=O)O)c1C(=O)O` [Pyridine pentacarboxylic acid], the Solubility was found to be 10 g/100 g. Furan carboxylic acid came in with a Solubility of 7 g/100 g.

These data come from patent US20050244592A1, “Recording paper and image recording method” (FUJI XEROX CO., LTD., priority 2004, published 2005).
